Results: publication PMC7112121 (Bioorganic Chemistry, 2019)
Like-named read-outs stand apart in the source and are kept apart here.

B1: Urtica dioica agglutinin (protein, UniProt P11218 24-372, looked up)
Lectin/endochitinase 1: QRCGSQGGGGTCPALWCCSIWGWCGDSEPYCGRTCENKCWSGERSDHRCGAAVGNPPCGQDRCCSVHGWCGGGNDYCSGSKCQYRCSSSVRGPRVALSGNSTANSIGNVVVTEPLFDQMFSHRKDCPSQGFYSYHSFLVAAESFPAFGTIGDVATRKREVAAFLAHISQATSGERSDVENPHAWGLCHINTTTVTENDFCTSSDWPCAAGKKYSPRGPIQLTHNFNYGLAGQAIGEDLIQNPDLVEKDPIISFKTALWFWMSQHDNKPSCHDIVLNANSAANRIPNKGVIGNIISRAFGHDDFAVRSSSIGFYKRYCDMLGVSYGHDLKYWFDNTPSSEFQRIQMRVAA

What was measured:
[1] = test system: Vaccinia virus; test: microbe, parasite or virus in culture; format: cell-based; settings: for EC50: Orthopoxvirus vaccinia, HEL, read-out: Antiviral EC50 Vaccinia virus
[2] = test system: HSV-2; test: Antiviral CPE reduction assay, HSV-2 in HEL cells; format: cell-based, Herpes simplex virus-2; settings: for EC50: Human alphaherpesvirus 2, HEL, read-out: Antiviral EC50 HSV-2; for Antiviral EC50 HSV-2: HEL cells, CPE by microscopy, mean of two experiments
[3] = test system: ACV^r-HSV-1; test: Antiviral CPE reduction assay, ACVr-HSV-1 in HEL cells; format: cell-based; settings: for EC50: Human alphaherpesvirus 1, HEL, read-out: Antiviral EC50 ACV^r-HSV-1; for Antiviral EC50 ACV^r-HSV-1: HEL cells, CPE by microscopy, mean of two experiments
[4] = test system: human embryonic lung (HEL) fibroblast cells; settings: minimum cytotoxic concentration
[5] = test system: Sindbis virus; test: Antiviral CPE reduction assay, Sindbis virus in VERO cells; format: cell-based; settings: for Antiviral EC50 Sindbis virus: VERO cells, CPE by microscopy, mean of two experiments; for EC50: Sindbis virus, Vero, read-out: Antiviral EC50 Sindbis virus
[6] = test system: Mycobacterium tuberculosis H37Rv; settings: for H37Rv Finding Activity: M. tuberculosis H37Rv, MABA in BACTEC 12B medium
[7] = test system: VERO cells; settings: minimum cytotoxic concentration
[8] = test system: Punto Toro virus; test: Antiviral CPE reduction assay, Punto Toro virus in VERO cells; format: cell-based, Punta toro virus; settings: for Antiviral EC50 Punto Toro virus: VERO cells, CPE by microscopy, mean of two experiments; for EC50: Punta Toro virus, Vero, read-out: Antiviral EC50 Punto Toro virus
[9] = test system: Reovirus-1; test: Antiviral CPE reduction assay, Reovirus-1 in VERO cells; format: cell-based; settings: for Antiviral EC50 Reovirus-1: VERO cells, CPE by microscopy, mean of two experiments; for EC50: Vero, read-out: Antiviral EC50 Reovirus-1
[10] = test system: Coxsackie B4 virus; test: Antiviral CPE reduction assay, Coxsackie B4 virus in VERO cells; format: cell-based; settings: for Antiviral EC50 Coxsackie B4 virus: CPE by microscopy, mean of two experiments; for EC50: Enterovirus B, B4, Vero, read-out: Antiviral EC50 Coxsackie B4 virus
[11] = test system: HSV-1; test: Antiviral CPE reduction assay, HSV-1 in HEL cells; format: cell-based, Herpes simplex virus-1; settings: for Antiviral EC50 HSV-1: HEL cells, CPE by microscopy, mean of two experiments; for EC50: Human alphaherpesvirus 1, HEL, read-out: Antiviral EC50 HSV-1
[12] = test system: Vesicular stomatitis virus; format: cell-based
[13] = test system: CRFK feline kidney cells; settings: MTS cell viability assay
[14] = test system: Parainfluenza-3 virus; test: Antiviral CPE reduction assay, Parainfluenza-3 virus in VERO cells; format: cell-based; settings: for Antiviral EC50 Parainfluenza-3 virus: VERO cells, CPE by microscopy, mean of two experiments; for EC50: Vero, read-out: Antiviral EC50 Parainfluenza-3 virus
[15] = test system: Feline herpesvirus; test: Antiviral CPE reduction assay, Feline herpesvirus in CRFK cells; format: cell-based; settings: Felid alphaherpesvirus 1, CRFK, read-out: Antiviral EC50 Feline herpesvirus
[16] = test system: Feline coronavirus; test: microbe, parasite or virus in culture; settings: Alphacoronavirus 1, CRFK, read-out: Antiviral EC50 Feline coronavirus
[17] = microscopic inspection of cell morphology

| Molecule | EC50 [1] | EC50 [2] | EC50 [3] | Cytotoxicity MCC [4, 17] [µg/mL] | Cytotoxicity MCC [7, 17] [µg/mL] | EC50 [5] | EC50 [15] | EC50 [8] | EC50 [16] | EC50 [9] | EC50 [10] | EC50 [11] | EC50 [14] | also measured |
| --- | --- | --- | --- | --- | --- | --- | --- | --- | --- | --- | --- | --- | --- | --- |
| Nc1nc2c(ncn2COCCO)c(=O)[nH]1 [Acyclovir, reference compound] | > 250 µM | 0.5 µM | ≥ 112 µM | – | – | – | – | – | – | – | – | – | – | – |
| O=c1[nH]c(=O)n([C@H]2C[C@H](O)[C@@H](CO)O2)cc1/C=C/Br [Brivudine, reference compound] | – | 50 µM | – | – | – | – | – | – | – | – | – | – | – | Cytotoxicity MCC ([4]; reference in µM): >250 µM |
| Nc1ccn(C[C@@H](CO)OCP(=O)(O)O)c(=O)n1 [Cidofovir, reference compound] | – | – | – | – | – | – | – | – | – | – | – | – | – | Cytotoxicity MCC ([4]; reference in µM): >250 µM |
| O=C(Cc1csc2nc(-c3ccc(Br)cc3)cn12)NN=C1CCCCC1 [Compound 4b, 6-(4-Bromophenyl)-N^2-(cyclohexylidene)imidazo[2,1-b]thiazole-3-acetohydrazide] | – | – | – | 20 | >100 | – | – | – | – | – | – | – | – | Antiviral EC50 Sindbis virus [5]: >100 µg/mL; Antiviral EC50 Vaccinia virus [1]: >100 µg/mL; H37Rv Finding MIC [6]: >100 µg/mL; IC50 [6]: > 100 µg/mL; H37Rv Finding Activity [6]: Inactive; Antiviral EC50 Punto Toro virus [8]: >100 µg/mL; Antiviral EC50 HSV-2 [2]: >100 µg/mL; Antiviral EC50 Reovirus-1 [9]: >100 µg/mL; Antiviral EC50 Coxsackie B4 virus ([10]; VERO cells): >100 µg/mL; Antiviral EC50 ACV^r-HSV-1 [3]: >100 µg/mL; Antiviral EC50 HSV-1 [11]: >100 µg/mL; Antiviral EC50 Vesicular stomatitis virus [12]: >100 µg/mL; Cytotoxicity CC50 [13]: >100 µg/mL; Antiviral EC50 Parainfluenza-3 virus [14]: >100 µg/mL |
| O=C(Cc1csc2nc(-c3ccc(Br)cc3)cn12)NN1C(=O)CSC12CCCC2 [Compound 5a, 2-[6-(4-Bromophenyl)imidazo[2,1-b]thiazole-3-yl]-N-(3-oxo-1-thia-4-azaspiro[4.4]non-4-yl)acetamide] | > 100 µg/mL | > 100 µg/mL | > 100 µg/mL | 100 | ≥20 | > 100 µg/mL | > 100 µg/mL | > 100 µg/mL | > 100 µg/mL | > 100 µg/mL | > 100 µg/mL | > 100 µg/mL | > 100 µg/mL | H37Rv Finding MIC [6]: 8.453 µg/mL; H37Rv Finding Activity [6]: Active |
| O=C(Cc1csc2nc(-c3ccc(Br)cc3)cn12)NN1C(=O)CSC12CCCCC2 [Compound 5b, 2-[6-(4-Bromophenyl)imidazo[2,1-b]thiazole-3-yl]-N-(3-oxo-1-thia-4-azaspiro[4.5]dec-4-yl)acetamide] | > 100 µg/mL | > 100 µg/mL | > 100 µg/mL | >100 | >100 | > 100 µg/mL | > 100 µg/mL | > 100 µg/mL | > 100 µg/mL | > 100 µg/mL | > 100 µg/mL | > 100 µg/mL | > 100 µg/mL | H37Rv Finding MIC [6]: 1.566 µg/mL; H37Rv Finding Activity [6]: Active |
| CC1SC2(CCCC2)N(NC(=O)Cc2csc3nc(-c4ccc(Br)cc4)cn23)C1=O (centres unmarked) [Compound 6a, 2-[6-(4-Bromophenyl)imidazo[2,1-b]thiazole-3-yl]-N-(2-methyl-3-oxo-1-thia-4-azaspiro[4.4]non-4-yl)acetamide] | > 100 µg/mL | > 100 µg/mL | > 100 µg/mL | ≥20 | 100 | > 100 µg/mL | > 100 µg/mL | > 100 µg/mL | > 100 µg/mL | > 100 µg/mL | > 100 µg/mL | > 100 µg/mL | > 100 µg/mL | – |
| CC1SC2(CCCCC2)N(NC(=O)Cc2csc3nc(-c4ccc(Br)cc4)cn23)C1=O (centres unmarked) [Compound 6b, 2-[6-(4-Bromophenyl)imizado[2,1-b]thiazole-3-yl]-N-(2-methyl-3-oxo-1-thia-4-azaspiro[4], [5]dec-4-yl)acetamide] | – | – | – | 20 | 100 | – | – | – | – | – | – | – | – | Antiviral EC50 Sindbis virus [5]: >100 µg/mL; Antiviral EC50 Vaccinia virus [1]: >100 µg/mL; Antiviral EC50 Punto Toro virus [8]: >100 µg/mL; Antiviral EC50 HSV-2 [2]: >100 µg/mL; Antiviral EC50 Reovirus-1 [9]: >100 µg/mL; Antiviral EC50 Coxsackie B4 virus ([10]; VERO cells): >100 µg/mL; Antiviral EC50 ACV^r-HSV-1 [3]: >100 µg/mL; Antiviral EC50 HSV-1 [11]: >100 µg/mL; Antiviral EC50 Vesicular stomatitis virus [12]: >100 µg/mL; Cytotoxicity CC50 [13]: 9.2 µg/mL; Antiviral EC50 Parainfluenza-3 virus [14]: >100 µg/mL |
| CC1SC2(CCC(c3ccccc3)CC2)N(NC(=O)Cc2csc3nc(-c4ccc(Br)cc4)cn23)C1=O (centres unmarked) [Compound 6c, 2-[6-(4-Bromophenyl)imidazo[2,1-b]thiazole-3-yl]-N-(2-methyl-8-phenyl-3-oxo-1-thia-4-azaspiro[4.5]dec-4-yl)acetamide] | > 100 µg/mL | > 100 µg/mL | > 100 µg/mL | 20 | 20 | > 100 µg/mL | > 100 µg/mL | > 100 µg/mL | > 100 µg/mL | > 100 µg/mL | > 100 µg/mL | > 100 µg/mL | > 100 µg/mL | – |
| CC1SC2(CCC(c3ccc(O)cc3)CC2)N(NC(=O)Cc2csc3nc(-c4ccc(Br)cc4)cn23)C1=O (centres unmarked) [Compound 6d, 2-[6-(4-Bromophenyl)imidazo[2,1-b]thiazole-3-yl]-N-(2-methyl-8-(4-hydroxyphenyl)-3-oxo-1-thia-4-azaspiro[4.5]dec-4-yl)acetamide] | > 100 µg/mL | > 100 µg/mL | > 100 µg/mL | ≥20 | ≥20 | > 100 µg/mL | > 100 µg/mL | > 100 µg/mL | > 100 µg/mL | > 100 µg/mL | 10 µg/mL | > 100 µg/mL | > 100 µg/mL | selectivity index ([10]; Coxsackie B4 virus, VERO cells): ≥ 2 |
| Nc1nc(O)c2ncn(COC(CO)CO)c2n1 [Ganciclovir, reference compound] | > 100 µM | 0.03 µM | 60 µM | – | – | – | 1.9 µM | – | > 100 µM | – | – | 0.025 µM | – | Cytotoxicity MCC ([4]; reference in µM): >100 µM |
| NC(=O)c1ncn([C@@H]2O[C@H](CO)[C@@H](O)[C@H]2O)n1 [Ribavirin, reference compound] | – | – | – | – | – | > 250 µM | – | 38 µM | – | > 250 µM | > 250 µM | – | 50 µM | Cytotoxicity MCC ([7]; reference in µM): >250 µM |
| dextran sulphate MW 5,000 [DS-5,000, reference compound] | – | – | – | – | >100 | – | – | – | – | – | – | – | – | Antiviral EC50 Reovirus-1 [9]: ≥100 µg/mL; Antiviral EC50 Parainfluenza-3 virus [14]: >100 µg/mL |
| B1 | – | – | – | – | – | – | – | – | – | – | – | – | – | Cytotoxicity CC50 [13]: 29 µg/mL |
